Key:
Assay in all cases: cell-based
PTGER2 (EP2) = PTGER2 (EP2) (Homo sapiens, UniProt P43116)
PTRGER4 (EP4) = PTRGER4 (EP4) (Homo sapiens, UniProt P35408);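 also: assay plate preincubated 15 min at 37 °C, after which PGE2 was added at 20 nM final and incubation continued 120 min at 37 °C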
EP2 = EP2 (Homo sapiens, UniProt P43116);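 also: SF295 glioblastoma cells with endogenous EP2 only, PGE2-stimulated cAMP accumulation read by HTRF competitive immunoassay, 45 min pre-incubation then 30 min at room temperature, IBMX in buffer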
Chain of EP2 (P43116 whole entry): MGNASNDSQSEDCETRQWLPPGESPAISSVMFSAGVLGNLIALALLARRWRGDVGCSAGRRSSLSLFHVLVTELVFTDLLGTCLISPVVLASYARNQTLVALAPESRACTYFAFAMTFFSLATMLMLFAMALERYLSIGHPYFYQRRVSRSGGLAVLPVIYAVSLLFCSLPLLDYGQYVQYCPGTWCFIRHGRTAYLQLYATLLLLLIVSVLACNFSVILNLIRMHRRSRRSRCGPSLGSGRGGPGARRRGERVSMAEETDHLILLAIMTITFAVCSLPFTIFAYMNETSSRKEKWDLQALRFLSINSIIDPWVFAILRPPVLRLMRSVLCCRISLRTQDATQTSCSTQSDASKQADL

EP4 = EP4 (Homo sapiens, UniProt P35408);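 also: inhibition of PGE2-evoked (6 nM) cAMP accumulation in BT549 breast cancer cells endogenously expressing EP4, cAMP read by HTRF competitive immunoassay after 30 min at room temperature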
Chain of EP4 (P35408 whole entry): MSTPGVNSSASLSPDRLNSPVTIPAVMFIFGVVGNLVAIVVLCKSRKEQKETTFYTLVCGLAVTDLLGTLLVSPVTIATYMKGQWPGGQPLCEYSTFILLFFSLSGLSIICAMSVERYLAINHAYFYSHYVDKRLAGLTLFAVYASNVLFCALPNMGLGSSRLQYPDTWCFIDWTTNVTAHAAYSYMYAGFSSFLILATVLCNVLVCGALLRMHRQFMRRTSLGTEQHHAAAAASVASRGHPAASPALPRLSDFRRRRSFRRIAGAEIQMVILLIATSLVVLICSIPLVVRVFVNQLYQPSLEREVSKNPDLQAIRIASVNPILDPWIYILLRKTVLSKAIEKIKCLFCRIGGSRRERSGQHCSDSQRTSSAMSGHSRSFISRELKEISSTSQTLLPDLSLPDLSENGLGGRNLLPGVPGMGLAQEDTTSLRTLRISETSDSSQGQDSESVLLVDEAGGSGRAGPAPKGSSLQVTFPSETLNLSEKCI

Chain of PTRGER4 (EP4) (P35408 whole entry): as above
Chain of PTGER2 (EP2) (P43116 whole entry): as the sequence (P43116 whole entry) above

IC50 (PTGER2 (EP2)) | IC50 (PTRGER4 (EP4)) | IC50 (EP2) | IC50 (EP4) | Compound
240 nM | 402 nM | 86 nM | 65 nM | Cc1ccc(CCNc2cc(-c3cc(F)c(C(=O)O)s3)ncn2)cc1 [Example 1, 3-Fluoro-5-[6-(2-p-tolyl-ethylamino)-pyrimidin-4-yl]thiophene-2-carboxylic acid]
438 nM | 550 nM | 79 nM | 112 nM | COc1cc(SC)ccc1CCNc1cc(-c2ccc(C(=O)O)c(SC)c2)ncn1 [Example 2, 4-{6-[2-(2-Methoxy-4-methylsulfanyl-phenyl)-ethylamino]-pyrimidin-4-yl}-2-methylsulfanyl-benzoic acid]
86 nM | 420 nM | 45 nM | 46 nM | COc1cc(C)c(C)cc1CCNc1cc(-c2ccc(C(=O)O)c(SC)c2)ncn1 [Example 3, 4-{6-[2-(2-Methoxy-4,5-dimethyl-phenyl)-ethylamino]-pyrimidin-4-yl}-2-methylsulfanyl-benzoic acid]
1350 nM | 1210 nM | 702 nM | 573 nM | CCOc1cc(-c2cc(NCCc3ccc(SC)cc3OC)ncn2)ccc1C(=O)O [Example 6, 2-Ethoxy-4-{6-[2-(2-methoxy-4-methylsulfanyl-phenyl)-ethylamino]-pyrimidin-4-yl}-benzoic acid]
441 nM | 759 nM | 205 nM | 140 nM | CCOc1cc(-c2cc(NCCc3cc(C)c(C)cc3OC)ncn2)ccc1C(=O)O [Example 7, 2-Ethoxy-4-{6-[2-(2-methoxy-4,5-dimethyl-phenyl)-ethylamino]-pyrimidin-4-yl}-benzoic acid]
358 nM | 1090 nM | 311 nM | 440 nM | CCOc1cc(-c2cc(NCCc3ccc(Br)cc3)ncn2)ccc1C(=O)O [Example 11, 4-{6-[2-(4-Bromo-phenyl)-ethylamino]-pyrimidin-4-yl}-2-ethoxy-benzoic acid]
368 nM | 56 nM | 198 nM | 42 nM | CCOc1cc(-c2cc(NCCc3ccc(Br)cc3)ncn2)ccc1-c1noc(=O)[nH]1 [Example 15, 3-(4-{6-[2-(4-Bromo-phenyl)-ethylamino]-pyrimidin-4-yl}-2-ethoxy-phenyl)-[1,2,4]oxadiazol-5(4H)-one]
202 nM | 147 nM | 189 nM | 293 nM | CCOc1cc(-c2cc(NCCc3ccc(Br)cc3)ncn2)sc1CC(=O)O [Example 17, (5-{6-[2-(4-Bromo-phenyl)-ethylamino]-pyrimidin-4-yl}-3-ethoxy-thiophen-2-yl)-acetic acid]
481 nM | 168 nM | 130 nM | 173 nM | CSc1cc(-c2cc(NCCc3ccc(C)c(C)c3)ncn2)ccc1C(=O)O [Example 18, 4-{6-[2-(3,4-Dimethyl-phenyl)-ethylamino]-pyrimidin-4-yl}-2-methylsulfanyl-benzoic acid]
248 nM | 779 nM | 193 nM | 80 nM | CCOc1cc(-c2cc(NCCc3ccc(Br)cc3F)ncn2)ccc1C(=O)O [Example 21, 4-{6-[2-(4-Bromo-2-fluoro-phenyl)-ethylamino]-pyrimidin-4-yl}-2-ethoxy-benzoic acid]
73 nM | 60 nM | 28 nM | 61 nM | CCOc1cc(-c2cc(NCCc3c(F)cc(Br)cc3F)ncn2)ccc1-c1nnn[nH]1 [Example 23, [2-(4-Bromo-2,6-difluoro-phenyl)-ethyl]-{6-[3-ethoxy-4-(1H-tetrazol-5yl)-phenyl]-pyrimidin-4-yl}-amine]
149 nM | 104 nM | 46 nM | 115 nM | O=C(O)c1ccc(-c2cc(NCCc3c(F)cc(Br)cc3F)ncn2)s1 [Example 26, 5-{6-[2-(4-Bromo-2,6-difluoro-phenyl)-ethylamino]-pyrimidin-4-yl}-thiophene-2-carboxylic acid]
23 nM | 168 nM | 50 nM | 97 nM | CCOc1c(C(=O)O)sc(-c2cc(NCCc3c(F)cc(Br)cc3F)ncn2)c1Cl [Example 27, 5-{6-[2-(4-Bromo-2,6-difluoro-phenyl)-ethylamino]-pyrimidin-4-yl}-4-chloro-3-ethoxy-thiophene-2-carboxylic acid]
49 nM | 80 nM | 41 nM | 41 nM | Cc1cc(-c2cc(NCCc3c(F)cc(Br)cc3F)ncn2)sc1C(=O)O [Example 28, 5-{6-[2-(4-Bromo-2,6-difluoro-phenyl)-ethylamino]-pyrimidin-4-yl}-3-methyl-thiophene-2-carboxylic acid]
29 nM | 20 nM | 23 nM | 12 nM | CCc1cc(-c2cc(NCCc3c(F)cc(Br)cc3F)ncn2)sc1C(=O)O [Example 29, 5-{6-[2-(4-Bromo-2,6-difluoro-phenyl)-ethylamino]-pyrimidin-4-yl}-3-ethyl-thiophene-2-carboxylic acid]
39 nM | 100 nM | 8 nM | 14 nM | O=C(O)c1sc(-c2cc(NCCc3c(F)cc(Br)cc3F)ncn2)cc1Cl [Example 31, 5-{6-[2-(4-Bromo-2,6-difluoro-phenyl)-ethylamino]-pyrimidin-4-yl}-3-chloro-thiophene-2-carboxylic acid]
109 nM | 242 nM | 86 nM | 433 nM | CCCc1cc(-c2cc(NCCc3c(F)cc(Br)cc3F)ncn2)ccc1C(=O)O [Example 35, 4-{6-[2-(4-Bromo-2,6-difluoro-phenyl)-ethylamino]-pyrimidin-4-yl}-2-propyl-benzoic acid]
70 nM | 684 nM | 91 nM | 951 nM | CCCOc1cc(-c2cc(NCCc3c(F)cc(Br)cc3F)ncn2)ccc1C(=O)O [Example 36, 4-{6-[2-(4-Bromo-2,6-difluoro-phenyl)-ethylamino]-pyrimidin-4-yl}-2-propoxy-benzoic acid]
277 nM | 202 nM | 128 nM | 81 nM | CC(C)Cc1cc(-c2cc(NCCc3c(F)cc(Br)cc3F)ncn2)ccc1C(=O)O [Example 38, 4-{6-[2-(4-Bromo-2,6-difluoro-phenyl)-ethylamino]-pyrimidin-4-yl}-2-isobutyl-benzoic acid]
122 nM | 349 nM | 164 nM | 697 nM | CCCc1cc(-c2cc(NCCc3c(F)cc(Br)cc3F)ncn2)cc(F)c1C(=O)O [Example 39, 4-{6-[2-(4-Bromo-2,6-difluoro-phenyl)-ethylamino]-pyrimidin-4-yl}-2-fluoro-6-propyl-benzoic acid]
260 nM |  | 139 nM | 554 nM | CCOc1cc(-c2cc(NCCc3ccccc3Br)ncn2)sc1C(=O)O [Example 70, 5-{6-[2-(2-Bromo-phenyl)-ethylamino]-pyrimidin-4-yl}-3-ethoxy-thiophene-2-carboxylic acid]
176 nM |  | 149 nM | 458 nM | CCOc1cc(-c2cc(NCCc3ccccc3Cl)ncn2)sc1C(=O)O [Example 78, 5-{6-[2-(2-Chloro-phenyl)-ethylamino]-pyrimidin-4-yl}-3-ethoxy-thiophene-2-carboxylic acid]

— patent publication US11712438B2, “Phenyl derivatives as PGE2 receptor modulators” (IDORSIA PHARMACEUTICALS LTD, priority 2017, dated 2023)
